Test results from patent US20250206732A1, “COMPOUNDS AND METHODS FOR THE TARGETED DEGRADATION OF KRAS” (Arvinas Operations, Inc., priority 2022, published 2025).

Target: T1, AsPC-1 HiBiT-KRASG12D (Homo sapiens, UniProt P01116, G12D)
T1 construct: insert the HiBiT tag onto the N-terminus of one or more of the endogenous KRAS alleles; endogenous in cells; host or cells: AsPC-1 (ATCC CRL-1682), CRISPR-Cas9 knock-in clone, one tagged allele
Assay: HiBiT degradation assay (G12D), AsPC-1 HiBiT-KRASG12D cells
Assay type: cell-based
Settings: 24 hours treatment; for Dmax: ASPC1, AsPC-1 HiBiT-KRASG12D cells; for DC50: HiBiT luminescence
How it was run: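 HiBiT-KRAS abundance was read as Nano-Glo HiBiT lytic luminescence (45 min, room temperature) after a PBS wash. Before that, a 4 h alamar blue fluorescence read, normalized to DMSO, monitored viability. Treatment lasted 24 hours at 37 °C, in triplicate, using AsPC-1 cells with endogenous N-terminally HiBiT-tagged KRAS G12D.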

T1 sequence (P01116 1-188 isoform P01116-2 G12D): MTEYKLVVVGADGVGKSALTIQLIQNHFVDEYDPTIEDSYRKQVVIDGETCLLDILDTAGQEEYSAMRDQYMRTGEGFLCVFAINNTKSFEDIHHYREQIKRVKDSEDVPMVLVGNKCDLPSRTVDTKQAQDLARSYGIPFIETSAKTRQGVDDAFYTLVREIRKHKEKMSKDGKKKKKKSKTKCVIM

Row | SMILES | Dmax (maximum degradation observed) [%] | DC50 (AsPC-1 HiBiT-KRASG12D cells) [nM] | AsPC-1 HiBiT-KRASG12D DMax (AsPC-1 HiBiT-KRASG12D cells, maximum degradation observed)
1 | CCc1cccc2cc(O)cc(-c3ncc4c(N5CC6CCC(C5)N6)nc(OC[C@@]56CCCN5[C@H](COc5cc([C@@H](C(=O)N7C[C@H](O)C[C@H]7C(=O)N[C@@H](C)c7ccc(-c8scnc8C)cc7)C(C)C)on5)CC6)nc4c3F)c12 [Compound 30, (2S,4R)-1-[(2S)-2-(3-{[(3S,7aS)-7a-{[(4-{3,8-diazabicyclo[3.2.1]octan-3-yl}-7-(8-ethyl-3-hydroxynaphthalen-1-yl)-8-fluoropyrido[4,3-d]pyrimidin-2-yl)oxy]methyl}-hexahydro-1H-pyrrolizin-3-yl]methoxy}-1,2-oxazol-5-yl)-3-methylbutanoyl]-4-hydroxy-N-[(1S)-1-[4-(4-methyl-1,3-thiazol-5-yl)phenyl]ethyl]pyrrolidine-2-carboxamide] | 20 to 60 | < 600 | –
2 | C#Cc1c(F)ccc2cc(O)cc(-c3ncc4c(N5CC6CCC(C5)N6)nc(OC[C@@H]5CC[C@@H](COC(=O)N6CCN(c7cc([C@H](C(=O)N8C[C@H](O)C[C@H]8C(=O)N[C@@H](C)c8ccc(-c9scnc9C)cc8)C(C)C)on7)CC6)N5C)nc4c3F)c12 [Compound 59, [(2S,5S)-5-{[(4-{3,8-diazabicyclo[3.2.1]octan-3-yl}-7-(8-ethynyl-7-fluoro-3-hydroxynaphthalen-1-yl)-8-fluoropyrido[4,3-d]pyrimidin-2-yl)oxy]methyl}-1-methylpyrrolidin-2-yl]methyl 4-{5-[(2R)-1-[(2S,4R)-4-hydroxy-2-{[(1S)-1-[4-(4-methyl-1,3-thiazol-5-yl)phenyl]ethyl]carbamoyl}pyrrolidin-1-yl]-3-methyl-1-oxobutan-2-yl]-1,2-oxazol-3-yl}piperazine-1-carboxylate] | 80 to 100 | < 600 | –
3 | CCc1cccc2cc(O)cc(-c3ncc4c(N5CC6CCC(C5)N6)nc(OC[C@]56CCCN5[C@H](COC(=O)N5CCN(c7cc([C@@H](C(=O)N8C[C@H](O)C[C@H]8C(=O)N[C@@H](C)c8ccc(C#N)cc8)C(C)C)on7)CC5)CC6)nc4c3F)c12 [Compound 67, [(3S,7aR)-7a-{[(4-{3,8-diazabicyclo[3.2.1]octan-3-yl}-7-(8-ethyl-3-hydroxynaphthalen-1-yl)-8-fluoropyrido[4,3-d]pyrimidin-2-yl)oxy]methyl}-hexahydro-1H-pyrrolizin-3-yl]methyl 4-{5-[(2S)-1-[(2S,4R)-2-{[(1S)-1-(4-cyanophenyl)ethyl]carbamoyl}-4-hydroxypyrrolidin-1-yl]-3-methyl-1-oxobutan-2-yl]-1,2-oxazol-3-yl}piperazine-1-carboxylate] | – | > 3000 | –
4 | CCc1cccc2cc(O)cc(-c3ncc4c(N5CC6CCC(C5)N6)nc(OCCN5CCC6(CC5)CN(c5cc([C@@H](C(=O)N7C[C@H](O)C[C@H]7C(=O)N[C@@H](C)c7ccc(-c8ccnn8C)cc7)C(C)C)on5)C6)nc4c3F)c12 (relative stereo) [Compound 141, (2S,4R)-1-[(2R*)-2-[3-(7-{2-[(4-{3,8-diazabicyclo[3.2.1]octan-3-yl}-7-(8-ethyl-3-hydroxynaphthalen-1-yl)-8-fluoropyrido[4,3-d]pyrimidin-2-yl)oxy]ethyl}-2,7-diazaspiro[3.5]nonan-2-yl)-1,2-oxazol-5-yl]-3-methylbutanoyl]-4-hydroxy-N-[(1S)-1-[4-(1-methyl-1H-pyrazol-5-yl)phenyl]ethyl]pyrrolidine-2-carboxamide] | 20 to 60 | 1000 to 3000 | –
5 | CCc1cccc2cc(O)cc(-c3ncc4c(N5CC6CCC(C5)N6)nc(OC[C@]56CCCN5[C@H](COC(=O)N5CCN(c7cc([C@@H](C(=O)N8C[C@H](O)C[C@H]8C(=O)N[C@@H](C)c8ccc(-c9scnc9C)cc8)C(C)C)on7)C[C@H]5C)CC6)nc4c3F)c12 [Compound 125, [(3S,7aR)-7a-{[(4-{3,8-diazabicyclo[3.2.1]octan-3-yl}-7-(8-ethyl-3-hydroxynaphthalen-1-yl)-8-fluoropyrido[4,3-d]pyrimidin-2-yl)oxy]methyl}-hexahydro-1H-pyrrolizin-3-yl]methyl (2R)-4-{5-[(2S)-1-[(2S,4R)-4-hydroxy-2-{[(1S)-1-[4-(4-methyl-1,3-thiazol-5-yl)phenyl]ethyl]carbamoyl}pyrrolidin-1-yl]-3-methyl-1-oxobutan-2-yl]-1,2-oxazol-3-yl}-2-methylpiperazine-1-carboxylate] | 20 to 60 | 600 to 1000 | –
6 | CCc1cccc2cc(O)cc(-c3ncc4c(N5CC6CCC(C5)N6)nc(OCCN5CCC(C(C)(C)N6CCN(c7cc([C@@H](C(=O)N8C[C@H](O)C[C@H]8C(=O)N[C@@H](C)c8ccc(-c9scnc9C)cc8)C(C)C)on7)CC6)CC5)nc4c3F)c12 (single isomer, unassigned) [Compound 254, (2S,4R)-1-[(2R*)-2-(3-{4-[2-(1-{2-[(4-{3,8-diazabicyclo[3.2.1]octan-3-yl}-7-(8-ethyl-3-hydroxynaphthalen-1-yl)-8-fluoropyrido[4,3-d]pyrimidin-2-yl)oxy]ethyl}piperidin-4-yl)propan-2-yl]piperazin-1-yl}-1,2-oxazol-5-yl)-3-methylbutanoyl]-4-hydroxy-N-[(1S)-1-[4-(4-methyl-1,3-thiazol-5-yl)phenyl]ethyl] pyrrolidine-2-carboxamide] | 20 to 60 | 600 to 1000 | –
7 | C#Cc1c(F)ccc2cccc(-c3ncc4c(N5CC6CCC(C5)N6)nc(OC[C@@]56CCCN5[C@@H](COC(=O)N5CCN(c7cc([C@H](C(=O)N8C[C@H](O)C[C@H]8C(=O)N[C@@H](C)c8ccc(-c9scnc9C)cc8)C(C)C)on7)CC5)CC6)nc4c3F)c12 (relative stereo) [Compound 334, [(3R,8S)-8-[[4-(3,8-diazabicyclo[3.2.1]octan-3-yl)-7-(8-ethynyl-7-fluoro-1-naphthyl)-8-fluoro-pyrido[4,3-d]pyrimidin-2-yl]oxymethyl]-1,2,3,5,6,7-hexahydropyrrolizin-3-yl]methyl 4-[5-[(1R)-1-[(2S,4R)-4-hydroxy-2-[[(1S)-1-[4-(4-methylthiazol-5-yl)phenyl]ethyl]carbamoyl]pyrrolidine-1-carbonyl]-2-methyl-propyl]isoxazol-3-yl]piperazine-1-carboxylate] | 60 to 80 | < 600 | –
8 | CCc1cccc2cccc(-c3ncc4c(N5CC6CCC(C5)N6)nc(OC[C@]56CCCN5[C@H](COc5cc([C@H](C(=O)N7C[C@H](O)C[C@H]7C(=O)N[C@@H](C)c7ccc(-c8scnc8C)cc7)C(C)C)on5)CC6)nc4c3F)c12 [Compound 309, (2S,4R)-1-[(2R)-2-[3-[[(3S,8R)-8-[[4-(3,8-diazabicyclo[3.2.1]octan-3-yl)-7-(8-ethyl-1-naphthyl)-8-fluoro-pyrido[4,3-d]pyrimidin-2-yl]oxymethyl]-1,2,3,5,6,7-hexahydropyrrolizin-3-yl]methoxy]isoxazol-5-yl]-3-methyl-butanoyl]-4-hydroxy-N-[(1S)-1-[4-(4-methylthiazol-5-yl)phenyl]ethyl]pyrrolidine-2-carboxamide] | < 20 | < 600 | –
9 | CCc1cccc2cc(O)cc(-c3ncc4c(N5CC6CCC(C5)N6)nc(OC[C@]56CCCN5[C@H](COC(=O)N5CCN(c7cc([C@H](C(=O)N8C[C@H](O)C[C@H]8C(=O)N[C@@H](C)c8ccc(-c9scnc9C)cc8)C(C)C)on7)[C@H](C)C5)CC6)nc4c3F)c12 [Compound 130, [(3S,7aR)-7a-{[(4-{3,8-diazabicyclo[3.2.1]octan-3-yl}-7-(8-ethyl-3-hydroxynaphthalen-1-yl)-8-fluoropyrido[4,3-d]pyrimidin-2-yl)oxy]methyl}-hexahydro-1H-pyrrolizin-3-yl]methyl (3R)-4-{5-[(2R)-1-[(2S,4R)-4-hydroxy-2-{[(1S)-1-[4-(4-methyl-1,3-thiazol-5-yl)phenyl]ethyl]carbamoyl}pyrrolidin-1-yl]-3-methyl-1-oxobutan-2-yl]-1,2-oxazol-3-yl}-3-methylpiperazine-1-carboxylate] | 80 to 100 | < 600 | –
10 | CCc1cccc2cc(O)cc(-c3ncc4c(N5CC6CCC(C5)N6)nc(OCCN5CCC(CN6CC(Oc7cc([C@H](C(=O)N8C[C@H](O)C[C@H]8C(=O)N[C@@H](C)c8ccc(-c9scnc9C)cc8)C(C)C)on7)C6)CC5)nc4c3F)c12 [Compound 244, (2S,4R)-1-[(2R)-2-[3-({1-[(1-{2-[(4-{3,8-diazabicyclo[3.2.1]octan-3-yl}-7-(8-ethyl-3-hydroxynaphthalen-1-yl)-8-fluoropyrido[4,3-d]pyrimidin-2-yl)oxy]ethyl}piperidin-4-yl)methyl]azetidin-3-yl}oxy)-1,2-oxazol-5-yl]-3-methylbutanoyl]-4-hydroxy-N-[(1S)-1-[4-(4-methyl-1,3-thiazol-5-yl)phenyl]ethyl] pyrrolidine-2-carboxamide] | 80 to 100 | < 600 | –
11 | C#Cc1c(F)ccc2cc(O)cc(-c3ncc4c(N5CC6CCC(C5)N6)nc(OCCN5CCC(CCOc6cc([C@@H](C(=O)N7C[C@H](O)C[C@H]7C(=O)N[C@@H](C)c7ccc(-c8scnc8C)cc7)C(C)C)on6)CC5)nc4c3F)c12 [Compound 174, (2S,4R)-1-[(2S)-2-{3-[2-(1-{2-[(4-{3,8-diazabicyclo[3.2.1]octan-3-yl}-7-(8-ethynyl-7-fluoro-3-hydroxynaphthalen-1-yl)-8-fluoropyrido[4,3-d]pyrimidin-2-yl)oxy]ethyl}piperidin-4-yl)ethoxy]-1,2-oxazol-5-yl}-3-methylbutanoyl]-4-hydroxy-N-[(1S)-1-[4-(4-methyl-1,3-thiazol-5-yl)phenyl]ethyl] pyrrolidine-2-carboxamide] | 80 to 100 | < 600 | –
12 | CCc1cccc2cc(O)cc(-c3ncc4c(N5CC6CCC(C5)N6)nc(OCCN5CCC(CC6CCN(c7cc(C(C(=O)N8C[C@H](O)C[C@H]8C(=O)N[C@@H](C)c8ccc(-c9scnc9C)cc8)C(C)C)on7)CC6)CC5)nc4c3F)c12 (single isomer, unassigned) [Compound 321] | – | 600 to 1000 | C (20% <C ≤ 60%)
